What is called IC50 is the concentration that inhibits the measured activity by half. A higher IC50 goes with weaker potency. What is called Kd is the equilibrium constant for the complex coming apart. High values mean weaker binding, low ones tighter binding.

One test concerns PC3 cells. The test can be described thus: MTT assay for cell viability. In kind it is cell-based. The following applies: doses of 0, 1, 2.5, 3.75, 5.0, 8.0 micromolar. Here is the method: The MTT assay is used to measure cellular metabolic activity as an indicator of cell viability, proliferation and cytotoxicity. This colorimetric assay is based on the reduction of a yellow tetrazolium salt (3-(4,5-dimethylthiazol-2-yl)-2,5-diphenyltetrazolium bromide or MTT) to purple formazan crystals by metabolically active cells. The viable cells contain NAD(P)H-dependent oxidoreductase enzymes which reduce the MTT to formazan. The insoluble formazan crystals are dissolved using 1-Propanol as a solubilization solution and the resulting purple colored solution is quantified by measuring absorbance at 570 nanometers (nm) using a multi-well spectrophotometer.
Protocol for MTT Assay: 100,000 PC3 cells were seeded per-well (CRL-1435, ATCC) for each dose of treatment 24 hours before treatment. Cells were quantitated with Countess II Cell Counter (AMQAX1000, Thermofisher Scientific). Cells were maintained at 37° C. with 5% CO2. SMAPs (dissolved in DMSO) were diluted to a stock concentration of 10 mM. Dilutions to the needed concentrations were made in DMEM (SH30022FS, Hyclone, GE Healthcare Life Sciences). Cells were treated with appropriate concentrations of compound. After 24 hours, MTT solution (M5655-1G, Sigma-Aldrich) was added to cells. Formazan crystals of metabolically active cells were dissolved with 1-Propanol (A414-500, ThermoFisher Scientific) and the solution was measured by absorbance at 570 nm (SpectraMax M5e, Molecular Devices).
Examples 1-3, 7-31, and 33-41 have also been studied in the above-described MTT assay for cell viability at four dose treatments (0, 2.5, 5.0, 10.0 micromolar).
Background: Tetrazolium dyes change colour on reduction, which living cells bring about.

Test [1] has as its target (Homo sapiens, UniProt O95931). The test can be described thus: Fluorescence anisotropy (FP) competition binding assay. The following applies: 10 nM FAM-ANRIL as probe. Here is the method: Fluorescence Anisotropy Binding Assay
Expression and purification of the first bromodomain (BrD1) of human BRD4 in poly-His tag form was performed using a procedure described in the literature [See Zeng et al. Structure 16, 643-652 (2008) and Zhang et al., J Biol Chem 287, 28840-28851 (2012).] The protein was purified by using affinity chromatography on a nickel-IDA column (Invitrogen), followed by the removal of poly-His tag by thrombin cleavage.
Measurements were obtained after 1 hour incubation of the fluorescent ligand and the protein at 25° C. with Safire 2 microplate reader (Tecan). In the assay, fluorescent ligand concentration was ≤2Kd, and protein concentration was set at which 50-80% of fluorescent ligand is bound. Dissociation constant of a competing ligand was calculated with the correction to Cheng-Prussoff equation introduced by Nicolovska-Coleska and colleagues [Nikolovska-Coleska, Z. et al., Anal Biochem 332, 261-273 (2004). Assuming one-site competitive binding model, the equation used to calculate K1's from IC50 values recovered from fitting data using Prism:
where [I50] is the concentration of free inhibitor at 50% inhibition, [L50], the concentration of free labeled ligand at 50% inhibition, and [P0], concentration of free protein at 0% inhibition. Note that Kd for each protein-probe pair is the limit of resolvable K1 in a competition assay.
In general terms: Polarisation of emitted light reports the rotation of a fluorescent probe.

Another test addresses CBX7ChD (Homo sapiens (Human), UniProt O95931). The following applies: cited from earlier work.
Test [2] concerns p16INK4a in prostate cancer cells. The following applies: cited from earlier work.
Where [3] appears, read: Homo sapiens, PC-3, 24 hours treatment.

Sequence of (Homo sapiens, UniProt O95931) (O95931 whole entry, looked up): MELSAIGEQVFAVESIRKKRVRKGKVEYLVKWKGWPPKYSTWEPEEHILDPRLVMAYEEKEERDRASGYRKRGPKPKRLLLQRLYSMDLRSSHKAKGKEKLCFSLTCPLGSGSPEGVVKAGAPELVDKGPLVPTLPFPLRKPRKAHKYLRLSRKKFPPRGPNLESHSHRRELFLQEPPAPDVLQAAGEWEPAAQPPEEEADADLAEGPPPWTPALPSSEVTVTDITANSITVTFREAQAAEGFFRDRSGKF
Sequence of CBX7ChD (O95931 11-69): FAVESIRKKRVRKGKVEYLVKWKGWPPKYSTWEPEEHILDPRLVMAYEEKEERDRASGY

`Cc1ccccc1Cn1c(=N)n(CC(O)c2ccc(Cl)c(Cl)c2)c2ccc(F)cc21` (stereo not drawn) [Example 2, 1-(3,4-dichlorophenyl)-2-(5-fluoro-2-imino-3-(2-methylbenzyl)-2,3-dihydro-1H-benzo[d]imidazol-1-yl)ethan-1-ol] showed an IC50 in the test on PC3 cells (setting [3]) of 884 nM.

In the case of `Cc1ccccc1Cn1c(=N)n(CC(O)c2ccc(Cl)c(Cl)c2)c2ccc(Cl)cc21` (stereo not drawn) [Example 3, 2-(5-chloro-2-imino-3-(2-methylbenzyl)-2,3-dihydro-1H-benzo[d]imidazol-1-yl)-1-(3,4-dichlorophenyl)ethan-1-ol], in the test with PC3 cells (setting [3]), the IC50 is 776 nM.

In test [1], `C#CCn1c(=N)n(CC(O)c2ccc(Cl)c(Cl)c2)c2ccccc21` (stereo not drawn) [Example 6, 1-(3,4-dichlorophenyl)-2-(2-imino-3-(prop-2-yn-1-yl)-2,3-dihydro-1H-benzo[d]imidazol-1-yl)ethan-1-ol] gave a Kd of 1.53 µM.

In turn, `Cc1ccc(Cn2cc(Cn3c(=N)n(CC(O)c4ccc(Cl)c(Cl)c4)c4ccccc43)nn2)cc1` (stereo not drawn) [Example 9, 1-(3,4-dichlorophenyl)-2-(2-imino-3-((1-(4-methylbenzyl)-1H-1,2,3-triazol-4-yl)methyl)-2,3-dihydro-1H-benzo[d]imidazol-1-yl)ethan-1-ol] gave an IC50 in the test with PC3 cells (24 hours treatment) of 900 nM. The compound also showed a Kd in test [1] of 0.108 µM.

For the compound `N=c1n(Cc2cn(Cc3ccccc3F)nn2)c2ccccc2n1CC(O)c1ccc(Cl)c(Cl)c1` (stereo not drawn) [Example 10, 1-(3,4-dichlorophenyl)-2-(3-((1-(2-fluorobenzyl)-1H-1,2,3-triazol-4-yl)methyl)-2-imino-2,3-dihydro-1H-benzo[d]imidazol-1-yl)ethan-1-ol], the IC50 in the test with PC3 cells (setting [3]) was 1840 nM.

In turn, `N=c1n(Cc2cn(-c3ccccc3)nn2)c2cc(Cl)ccc2n1CC(O)c1ccc(Cl)c(Cl)c1` (stereo not drawn) [Example 35, 2-(5-chloro-2-imino-3-((1-phenyl-1H-1,2,3-triazol-4-yl)methyl)-2,3-dihydro-1H-benzo[d]imidazol-1-yl)-1-(3,4-dichlorophenyl)ethanol] registered an IC50 in the test on PC3 cells (setting [3]) of 1120 nM.

Turning to `Cc1ccccc1Cn1c(=N)n(CC(O)c2ccc(Cl)c(Cl)c2)c2ccccc21.Cl` (stereo not drawn) [MS351], the “selectivity for CBX7ChD (over CBX2/4/6/8)” value on CBX7ChD is given as “selective for CBX7ChD”. For the same compound, in test [2], the “de-repression of p16INK4a” value is on record as “de-repress”.

These data come from patent US12473263B2, “Bicyclic inhibitors of CBX chromodomains” (Icahn School of Medicine At Mount Sinai, priority 2019, dated 2025).
